Experimental data from patent US20060079533A1, “Methods of treating alzheimer's disease” (priority 2001, published 2006).
Counter-ions that a name gives are not always drawn.

SMILES: Clc1ccc([C@H]2CCNC[C@@H]2OCc2ccc3ccccc3c2)cc1 (racemic) (as salt: hydrochloride) [Example 12, (3RS,4RS)-4-(4-chloro-phenyl)-3-(naphthalen-2-ylmethoxy)-piperidine]
- melting point: 159 to 161 °C (dec.)
